Assay results as given in patent USRE39113E1 (priority 1998, dated 2006).

Assays:
[1] = test system: hot-plate assay in mouses; test: hot-plate assay in mice; format: in vivo, Swiss albino mice; settings: ip, hot plate 55° C., licking of the paws
Method: The analgesic activity of the products object of the invention have been studied in several assays using the Swiss albino mice as the experimental animal. The assay of contortions induced by phenylbenzoquinone, the hot-plate assay and the hot-point assay are now described. The examples that are presented by way of illustration describe some of the pharmacological assays and should not limit the scope of the invention in any way.
The hot-plate assay was carried out following the method described by M. Ocana et al. (Europ J. Pharmacol. 186: 377-378, 1990). The product under study was administered s.c. or i.p. and 30 minutes later the analgesic effect was registered. For this the animals were placed on a metallic surface kept at 50° C. or 55° C. and the time registered (latency) until the licked their hind legs and a jump. The analgesic activity was calculated at each dose, comparing the potency of the treated group with the control group. Using the results obtained the ED-50 was calculated.

mouse's tail = test: animal or person; format: in vivo, Swiss albino mice; settings: sc

SMILES	ED50 (mouse's tail) [mg/kg]	also measured
Clc1ccc(C2=CCN(CCCCn3cc(Cl)cn3)CC2)cc1 [Example 47a]		Δ Latency ([1]; 40 mg/kg): 5 s
C1=C(c2ccccc2)CCN(CCCCn2cccc2)C1 [Example 51a]	5	
Brc1ccc(C2=CCN(CCCCn3cncn3)CC2)cc1 [Example 59a]	60	
Clc1ccc(C2=CCN(CCCCn3ccnc3-c3ccccc3)CC2)cc1 [Example 63a]	70	
CC(C)=CCN1CCC2(C)c3cc(O)ccc3CC1C2C (centres unmarked) [Pentazocine, reference compound]		Δ Latency ([1]; 10 mg/kg): 6 s
